Data set [1] is described as follows: One month toxicology evaluation in cynomolgus monkeys (serum ALT, AST, C5b9, MCP-1). In kind it is in vivo. The following applies: 1 mg/kg mRNA. As to the method: FIGS. 32A-32C are a series of graphs summarizing the results of a one month toxicology evaluation in rat and non-human primate. PBS (phosphate buffered saline) was used as a control. […] The serum levels were measured 24 post fifth dose (n=4). […] The serum levels were measured 24 post fifth dose (n=4).
FIGS. 33A and 33B are a pair of graphs summarizing the results of a one month toxicology evaluation in rats and non-human primates.
FIG. 38 is a graph showing mRNA levels in NHP after repeat dosing over the course of 29 days.

In data set [2] the test system is cynomolgus monkey. As to the kind of experiment: One-month toxicological evaluation with weekly dosing in cynomolgus monkey. In kind it is in vivo. As to the method: NHP studies: Nonhuman primate studies were conducted using naïve cynomolgus monkeys (cynos), 2-4 years old, weighing 2-6 kg. No treatment randomization or blinding methods were used for any of the animal studies. Sample sizes were determined by the resource equation method. For injection, mRNA-LNPs in phosphate buffered saline (PBS) were administered by 60-minute intravenous infusion using a temporary indwelling catheter inserted in a peripheral vein.
(§1) Serum ALT and AST levels: Samples were analyzed using a Modular Analytics analyzer.
Serum C5b9 levels: C5b9 sample analysis was performed using an ELISA method. The kit used was Human C5b-9 ELISA Set and Reagent Set B from BD Bioscience. Study samples were analyzed in singlicate diluted 1/100.
bDNA for measurement of mRNA levels: mRNA sample analysis (bDNA method) was performed using the QuantiGene® 2.0 Reagent System kit from Affymetrix. Study samples were lysed prior to analysis using the QuantiGene Sample Processing Kit (Blood samples). Study samples were analyzed in duplicate diluted between 1/100 and 1/1250000.
(§2) Next, tolerability and safety of the compound 18-based LNPs in vivo was tested. A full toxicological evaluation of compound 18-based LNPs in both Sprague Dawley rat and cynomolgus monkey was performed using a standard one-month study with weekly dosing at three dose levels in each species. Rats were dosed at 0.05, 0.5, and 2 mg/kg and a non-human primates was dosed at 0.1, 0.3, and 1 mg/kg. LNP-related toxicities associated with MC3-based LNP systems are generally associated with immunological (cytokine and complement activation) and hepatic injury. […] FIGS. 32 and 33 highlight the day 30 levels of alanine transferase (ALT, FIG. 32A) and aspartate aminotransferase (AST, FIG. 32B), two indicators of liver damage.

In data set [3] the test system is ApoE knockout mice. As to the kind of experiment: Expression study in ApoE knockout mice. The following applies: compound 18 based LNPs. In kind it is in vivo.
Data set [4] has as its system LDLr knockout mice. The data set is described as follows: Expression study in LDLr knockout mice. In kind it is in vivo. The following applies: compound 18 based LNPs.
Data set [5] concerns Sprague Dawley rat. The data set is described as follows: One-month toxicological evaluation with weekly dosing in rat. In kind it is in vivo. As to the method: as §1, §2
Data set [6] can be described thus: Metabolite identification of Compound 18 incubated with human plasma. In kind it is in vitro ADME. Further details: key to Detection at 0 min / Detection at 30 min / Detection at 60 min / Detection at 90 min: +: Detected; ND: Not detected. Here is the method: Metabolite Identification: Compound 18 (10 μM) was incubated with human plasma (29.0 mg protein/incubation) in incubation mixtures (200 μL final incubation volume) that consisted of 50/50 v/v neat plasma (undiluted)/substrate solution in 50 mM phosphate buffer, pH 7.4). The plasma was obtained from male and female donors and contained K2EDTA anticoagulant. Reactions were started by addition of the substrate solution to human plasma and were stopped at four designated time points (0, 30, 60 and 90 min) by the addition of 600 μL of stop reagent (acetonitrile). Stopped incubation samples were centrifuged (e.g., 10,000×g for 10 min at 10° C.) and the supernatant fractions were analyzed by LC-MS/MS to characterize the metabolites formed from compound 18. Additional incubations were performed with the positive control procaine […] to establish competency of the test system. Samples were analyzed by LC-MS/MS.
In vitro metabolite identification studies using compound 18 were also performed. […] The disappearance of parent compound 18 and the primary metabolite, compound 166, from mouse liver tissue was measured after dosing 0.25 mg/kg mRNA on days 1, 8, and 15.

A short description of data set [7]: pH, osmolality and zeta potential of nanoparticle compositions. In kind it is physicochemical. The following applies: nanoparticle composition with hEPO mRNA (Table 30).
In data set [8] the test system is Sprague Dawley rat liver. The data set is described as follows: Lipid remaining in rat liver tissue 48 h post dose (LC-MS/MS). In kind it is in vivo. The following applies: Sprague Dawley rat liver 48 h after 2 mg/kg bolus dose mRNA. From the text: Similar results were obtained in the Sprague Dawley rats using human erythropoietin (hEPO) encoding mRNA (FIG. 29C). […] Compound 18 and compound 25 provided a good balance of delivery efficiency and pharmacokinetics.

Data set [9] relates to IP-10. The data set is described as follows: Cytokine induction (IP-10) in rats after intravenous administration. In kind it is in vivo, rat. The following applies: for IP-10 induction: rat, 48 hours. As to the method: The expression of hEPO and cytokine induction in rats intravenously administered a nanoparticle composition at a dose of 2.0 mpk was measured at 6 h.
Table 19A summarizes the hEPO expression, IP-10 induction, liver and spleen levels, and alanine aminotransferase (ALT) and aspartate aminotransferase (AST) measured upon intravenous administration of formulations including Compounds 48, 49, and 50 to rat at 0.2 and 2 mpk and hEPO mRNA. hEPO concentrations were measured 6 hours after administration, while cytokine induction and liver and spleen levels were measured 48 hours after administration. hEPO and IP-10 concentrations are presented in pg/ml, while liver levels are provided in ng/g. ALT and AST levels are presented in international units.

Data set [10] can be described thus: Lipid clearance: mouse liver tissue level and % dose remaining in liver after intravenous administration. In kind it is in vivo.
[11] abbreviates: 60 min infusion, dosed weekly, after fifth dose (n=4).

Molecules are shown by their SMILES. Marks after values point to notes of the source that are not given here. Some results are limits rather than exact numbers.

`CCCCCCCCCOC(=O)CCCCCCCN(CCO)CCCCCCCC(=O)OC(CCCCCCCC)CCCCCCCC` [Compound 18, Heptadecan-9-yl 8-((2-hydroxyethyl)(8-(nonyloxy)-8-oxooctyl)amino)octanoate]: in data set [1] (setting [11]), the “Serum alanine aminotransferase levels” value was “No statistical difference between PBS pre-dose and day 30 levels”; the “Serum aspartate aminotransferase levels” value is “No statistical difference between PBS pre-dose and day 30 levels”. Also, in data set [1] (day 1 and day 29 (n=4)), the MCP-1 serum concentration entry was “no statistical difference between PBS and Compound 18 at any other timepoint”. Also, the “monocyte chemo-attractive protein (MCP-1)” value in data set [2] is “slight variation above baseline”. In data set [2] (1 mg/kg dose), the “ALT and AST levels, day 30” value is recorded as “at the same level as the control”. Besides, in [2] (bDNA), the “circulating mRNA levels after each dose” value was “consistent exposures”. The toxicological findings result in data set [2] (weekly dosing one month, 0.1, 0.3 and 1 mg/kg) was “minimal findings at all dose levels”. The “expression in ApoE knockout mice” value in data set [3] is recorded as “almost complete loss in expression”. Further, in data set [4], the “expression in LDLr knockout mice” value is on record as “almost complete loss in expression”. In addition, in [5] (any dose level), the “ALT and AST levels, day 30, relative to PBS control” value is on record as “minimal elevation”. Also, the toxicological findings entry in data set [5] (weekly dosing one month, 0.05, 0.5 and 2 mg/kg) is reported as “no adverse findings”. For the same molecule, the “Detection at 0 min” value in data set [6] (Compound 18 (10 μM), human plasma (29.0 mg protein/incubation), 0 min) is given as “+”. Further, the “Detection at 30 min” value in data set [6] (Compound 18 (10 μM), human plasma, 30 min) was “+”. In data set [6] (Compound 18 (10 μM), human plasma, 60 min), the “Detection at 60 min” value was “+”. The “Detection at 90 min” value in [6] (Compound 18 (10 μM), human plasma, 90 min) was “+”. In [6] (in vitro metabolite identification studies), the “initial step of metabolism” value is reported as “hydrolysis of the primary ester”.

In data set [7], `CCCCCC=CCC=CCCCCCCCCC(CCCCCCCCC=CCC=CCCCCC)OC(=O)CCCN(C)C` (centres unmarked) [MC3, heptatriaconta-6,9,28,31-tetraen-19-yl 4-(dimethylamino)butanoate, reference compound] showed an Osmolality of 318 mOsm/kg. For the same molecule, in [7], the Zeta potential is given as −3.64 mV. In addition, the pH in [7] stood at 7.52. Moreover, in data set [8], the “% dose remaining Rat liver tissue, 48 h” value is on record as 61^e %. For the same molecule, the IP-10 induction is 2 pg/mL in data set [9] (intravenous 0.2 mpk) and 596 pg/mL in data set [9] (intravenous 2 mpk). The molecule also gave an IP-10 in data set [9] (rats, intravenous 2.0 mpk, hEPO nanoparticle compositions, 6 hours) of 688.3 pg/mL. The “% Dose Remaining in Liver 6 h” value was found to be 80% in [10] (first column headed 6 h (Table 3D)) and 54% in data set [10] (second column headed 6 h (Table 3D)). For the same molecule, the “% Remaining dose at 6 h” value in [10] (mouse liver, 6 h) is given as above 98%. Further, the “% Remaining dose at 24 h” value in data set [10] (mouse liver, 24 h) is recorded as 79.7%. In data set [10] (mouse, liver, 0.5 mg/kg, 6 h), this molecule displayed a concentration at 6 h of 85400 ng/g. The molecule further yielded a concentration at 24 h in data set [10] (mouse, liver, 0.5 mg/kg, 24 h) of 67400 ng/g.
